Source: patent publication US11897862B2 (Gilead Sciences, Inc., priority 2022, dated 2024)

Assays:
IKZF1 = molecular target: T1, IKZF1 (Homo sapiens, UniProt Q13422+Q96SW2); experiment: HEK293 HiBiT in vitro degradation of IKZF1; format: cell-based; settings: for DC50 / IKZF1 Dmax: HEK293 HiBiT; for DC50: 18-24 hr incubation, normalized to DMSO control, read-out: IKZF1 EC50; for Dmax: HEK293, HEK293 HiBiT; for Dmax / IKZF1 Dmax: maximum degradation at the highest concentration tested
T1 construct: expressed in transfected cells
T1 sequence (Q13422 whole entry): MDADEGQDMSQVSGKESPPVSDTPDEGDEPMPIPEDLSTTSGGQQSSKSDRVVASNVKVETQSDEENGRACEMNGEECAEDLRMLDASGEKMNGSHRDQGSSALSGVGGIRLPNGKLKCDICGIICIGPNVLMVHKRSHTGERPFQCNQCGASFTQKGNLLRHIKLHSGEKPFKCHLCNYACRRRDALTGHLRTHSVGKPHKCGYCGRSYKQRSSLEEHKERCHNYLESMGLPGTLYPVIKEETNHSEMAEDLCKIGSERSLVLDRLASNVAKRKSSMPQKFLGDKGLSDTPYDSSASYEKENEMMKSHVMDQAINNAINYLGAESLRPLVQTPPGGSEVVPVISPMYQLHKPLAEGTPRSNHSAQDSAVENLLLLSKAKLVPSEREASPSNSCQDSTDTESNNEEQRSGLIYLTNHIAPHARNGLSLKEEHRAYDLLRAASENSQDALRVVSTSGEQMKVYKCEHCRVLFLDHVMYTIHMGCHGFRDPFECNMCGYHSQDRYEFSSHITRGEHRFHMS
T1 sequence (Q96SW2 whole entry): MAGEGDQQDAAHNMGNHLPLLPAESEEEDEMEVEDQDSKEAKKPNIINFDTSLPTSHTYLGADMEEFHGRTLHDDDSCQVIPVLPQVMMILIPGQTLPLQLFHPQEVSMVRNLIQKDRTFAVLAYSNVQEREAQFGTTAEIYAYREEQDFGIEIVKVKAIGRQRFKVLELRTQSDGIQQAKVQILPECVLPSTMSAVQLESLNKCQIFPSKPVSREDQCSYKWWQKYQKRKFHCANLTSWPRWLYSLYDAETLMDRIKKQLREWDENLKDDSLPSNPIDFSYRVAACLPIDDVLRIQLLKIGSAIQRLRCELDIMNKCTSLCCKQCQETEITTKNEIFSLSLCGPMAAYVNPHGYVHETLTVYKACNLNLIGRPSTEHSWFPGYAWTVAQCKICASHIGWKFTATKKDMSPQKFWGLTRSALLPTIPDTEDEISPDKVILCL
T1 sequence (Q16531 whole entry partner): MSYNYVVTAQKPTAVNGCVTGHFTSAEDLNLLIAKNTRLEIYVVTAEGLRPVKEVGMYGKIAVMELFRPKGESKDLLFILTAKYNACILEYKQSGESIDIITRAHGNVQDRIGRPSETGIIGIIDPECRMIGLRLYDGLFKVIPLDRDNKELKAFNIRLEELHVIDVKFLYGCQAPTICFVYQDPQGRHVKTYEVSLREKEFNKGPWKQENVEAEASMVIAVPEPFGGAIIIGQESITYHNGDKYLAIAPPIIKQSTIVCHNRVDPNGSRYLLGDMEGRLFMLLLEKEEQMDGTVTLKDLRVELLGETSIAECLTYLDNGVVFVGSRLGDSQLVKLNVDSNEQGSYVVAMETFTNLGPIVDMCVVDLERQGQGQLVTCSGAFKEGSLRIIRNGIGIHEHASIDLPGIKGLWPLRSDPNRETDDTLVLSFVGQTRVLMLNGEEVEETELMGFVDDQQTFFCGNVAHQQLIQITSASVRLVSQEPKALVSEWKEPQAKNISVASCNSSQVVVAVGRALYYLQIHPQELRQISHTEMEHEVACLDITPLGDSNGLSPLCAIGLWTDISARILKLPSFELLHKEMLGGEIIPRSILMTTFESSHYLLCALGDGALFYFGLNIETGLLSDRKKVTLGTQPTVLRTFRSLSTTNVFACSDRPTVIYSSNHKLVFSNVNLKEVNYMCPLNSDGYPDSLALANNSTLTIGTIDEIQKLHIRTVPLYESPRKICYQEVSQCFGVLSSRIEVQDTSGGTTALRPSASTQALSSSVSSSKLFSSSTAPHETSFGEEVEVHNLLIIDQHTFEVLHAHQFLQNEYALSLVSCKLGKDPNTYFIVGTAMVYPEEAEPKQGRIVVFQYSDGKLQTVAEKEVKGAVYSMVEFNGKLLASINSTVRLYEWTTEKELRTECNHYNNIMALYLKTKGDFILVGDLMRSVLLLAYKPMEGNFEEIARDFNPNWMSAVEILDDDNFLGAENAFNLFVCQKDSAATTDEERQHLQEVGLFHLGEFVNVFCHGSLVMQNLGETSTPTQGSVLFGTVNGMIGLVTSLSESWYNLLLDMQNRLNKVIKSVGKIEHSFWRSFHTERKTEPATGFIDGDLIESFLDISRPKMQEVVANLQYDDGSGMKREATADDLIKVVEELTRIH
Summary of the method: (§1)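 Stable HEK293 reporter pools, each with one integrated tet-inducible copy of a HiBiT-tagged target, were induced with doxycycline overnight at 37 °C. After 18-24 h with compound dilution series, Nano-Glo lysis and luminescence yielded EC50 and Dmax values.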

IKZF2 = IKZF2 (Homo sapiens, UniProt Q96SW2+Q9UKS7); experiment: HEK293 HiBiT in vitro degradation of IKZF2; format: cell-based; parameters: expressed in transfected cells; settings: for Dmax: HEK293, HEK293 HiBiT; for Dmax / IKZF2 Dmax: maximum degradation at the highest concentration tested; for DC50 / IKZF2 Dmax: HEK293 HiBiT; for DC50: 18-24 hr incubation, normalized to DMSO control, read-out: IKZF2 EC50
Sequence of IKZF2 (Q9UKS7 1-500 isoform Q9UKS7-2): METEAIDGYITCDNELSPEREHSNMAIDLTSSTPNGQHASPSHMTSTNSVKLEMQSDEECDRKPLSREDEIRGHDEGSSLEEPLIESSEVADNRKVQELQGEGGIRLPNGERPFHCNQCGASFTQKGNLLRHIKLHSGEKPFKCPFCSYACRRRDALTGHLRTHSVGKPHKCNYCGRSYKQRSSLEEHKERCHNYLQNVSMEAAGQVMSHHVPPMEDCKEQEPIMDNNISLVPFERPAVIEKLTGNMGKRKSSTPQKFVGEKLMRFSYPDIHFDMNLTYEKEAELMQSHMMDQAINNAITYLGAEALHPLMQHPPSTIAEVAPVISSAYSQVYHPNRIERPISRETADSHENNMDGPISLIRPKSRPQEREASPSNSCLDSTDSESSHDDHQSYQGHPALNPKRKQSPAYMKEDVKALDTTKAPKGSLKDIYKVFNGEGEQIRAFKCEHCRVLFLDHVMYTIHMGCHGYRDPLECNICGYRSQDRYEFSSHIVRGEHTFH
Sequence of IKZF2 (Q96SW2 whole entry): as the sequence (Q96SW2 whole entry) above
Sequence of IKZF2 (Q16531 whole entry partner): as the sequence (Q16531 whole entry partner) above
Summary of the method: as §1

SMILES | DC50 (IKZF1) [nM] | Dmax (IKZF2) [%] | DC50 (IKZF2) [nM] | Dmax (IKZF1) [%] | IKZF1 Dmax (IKZF1) [%] | IKZF2 Dmax (IKZF2) [%]
O=C1CCC(N2Cc3c(ccc(C[C@H]4OCCC[C@@H]4NCC4CCC4)c3F)C2=O)C(=O)N1 (some centres unmarked) [Example 152] | > 500 | 78 | 26 | – | – | –
C[C@@]1(O)CC[C@H](NC2CCC(F)(F)CC2)[C@@H](Cc2ccc3c(c2)CN(C2CCC(=O)NC2=O)C3=O)C1 (some centres unmarked) [Example 154] | > 500 | 90 | 114 | – | – | –
COC1CCC(NC2CCCOC2Cc2ccc3c(c2F)CN(C2CCC(=O)NC2=O)C3=O)CC1 (centres unmarked) [Example 156] | > 1000 | 98 | 6 | – | – | –
O=C1CCC(N2Cc3c(ccc(C[C@H]4OCCC[C@@H]4NC4CC5(CCC5)C4)c3F)C2=O)C(=O)N1 (some centres unmarked) [Example 157] | 61 | 92 | 8 | 35 | – | –
O=C1CCC(N2Cc3c(ccc(C[C@H]4OCCC[C@@H]4NC4CC5(CCCCC5)C4)c3F)C2=O)C(=O)N1 (some centres unmarked) [Example 158] | 72 | 91 | 11 | 50 | – | –
CC1(C)OCC(N[C@H]2CCCC[C@@H]2Cc2ccc3c(c2)CN(C2CCC(=O)NC2=O)C3=O)CO1 (some centres unmarked) [Example 161] | > 1000 | 88 | 95 | – | – | –
O=C1CCC(N2Cc3cc(C[C@H]4C[C@@H](O)CC[C@@H]4NC4CCC(F)(F)CC4)ccc3C2=O)C(=O)N1 (some centres unmarked) [Example 162] | 226 | 93 | 58 | 42 | – | –
O=C1CCC(N2Cc3cc(C[C@H]4CCC[C@H](O)[C@@H]4NC4CCC(F)(F)CC4)ccc3C2=O)C(=O)N1 (some centres unmarked) [Example 163] | 328 | 95 | 14 | 45 | – | –
CO[C@@H]1CCC[C@H](Cc2ccc3c(c2)CN(C2CCC(=O)NC2=O)C3=O)[C@H]1NC1CCC(F)(F)CC1 (some centres unmarked) [Example 164] | > 1000 | 83 | 17 | – | – | –
O=C1CCC(N2Cc3cc(C[C@H]4CCCC[C@@H]4NC4CCc5cn[nH]c5C4)ccc3C2=O)C(=O)N1 (some centres unmarked) [Example 165] | 270 | 98 | 20 | 28 | – | –
CCCC(CCC)N[C@H]1CCCC[C@@H]1Cc1ccc2c(c1)CN(C1CCC(=O)NC1=O)C2=O (some centres unmarked) [Example 166] | > 1000 | 96 | 23 | – | – | –
O=C1CCC(N2Cc3cc(C[C@H]4CCCC[C@@H]4NC4CCC5(CCO5)CC4)ccc3C2=O)C(=O)N1 (some centres unmarked) [Example 171] | 198 | 98 | 26 | 37 | – | –
O=C1CCC(N2Cc3cc(C[C@H]4CCCC[C@@H]4NC4CCC5(CCO5)CC4)ccc3C2=O)C(=O)N1 (some centres unmarked) [Example 172] | 203 | – | 19 | – | 28 | 98
O=C1CCC(N2Cc3cc(C[C@H]4CCCC[C@@H]4NCC45CC(c6ccccc6)(C4)C5(F)F)ccc3C2=O)C(=O)N1 (some centres unmarked) [Example 174] | > 1000 | 86 | 67 | – | – | –
O=C1CCC(N2Cc3cc(C[C@H]4CCCC[C@@H]4NC4CCOc5ccccc54)ccc3C2=O)C(=O)N1 (some centres unmarked) [Example 175] | 189 | 96 | 24 | 46 | – | –
CCC(C)N[C@H]1CCCC[C@@H]1Cc1ccc2c(c1)CN(C1CCC(=O)NC1=O)C2=O (some centres unmarked) [Example 176] | > 1000 | 96 | 3 | – | – | –
O=C1CCC(N2Cc3cc(C[C@H]4CCCC[C@@H]4NC4Cc5ccccc5C4)ccc3C2=O)C(=O)N1 (some centres unmarked) [Example 177] | 78 | 97 | 4 | 42 | – | –
O=C1CCC(N2Cc3cc(C[C@H]4CCC[C@@H]4NC4CCC(F)(F)CC4)ccc3C2=O)C(=O)N1 (some centres unmarked) [Example 178] | > 1000 | 72 | 168 | – | – | –
O=C1CCC(N2Cc3cc(C[C@H]4OCCC[C@@H]4NC4CCCCC4)ccc3C2=O)C(=O)N1 (some centres unmarked) [Example 179] | > 10000 | – | 16 | – | – | 88
CC(C)N[C@H]1CCCO[C@@H]1Cc1ccc2c(c1)CN(C1CCC(=O)NC1=O)C2=O (some centres unmarked) [Example 180] | > 1000 | 85 | 39 | – | – | –
CC(C)(CCN[C@H]1CCCC[C@@H]1Cc1ccc2c(c1)CN(C1CCC(=O)NC1=O)C2=O)C(F)(F)F (some centres unmarked) [Example 182] | 43 | 94 | 9 | 34 | – | –
O=C1CCC(N2Cc3cc(C[C@H]4CCCC[C@@H]4NC4CCCCC4(F)F)ccc3C2=O)C(=O)N1 (some centres unmarked) [Example 183] | > 1000 | – | 91 | – | – | 81
O=C1CCC(N2Cc3cc(C[C@H]4CCCC[C@@H]4NC4CC5CCC(C4)O5)ccc3C2=O)C(=O)N1 (some centres unmarked) [Example 184] | 56 | – | 3 | – | 30 | 97

SMILES | DC50 (IKZF1) [nM] | Dmax (IKZF2) [%] | DC50 (IKZF2) [nM] | Dmax (IKZF1) [%] | IKZF1 Dmax (IKZF1) [%] | IKZF2 Dmax (IKZF2) [%]
CC(C)CC(C)N[C@H]1CCCC[C@@H]1Cc1ccc2c(c1)CN(C1CCC(=O)NC1=O)C2=O (some centres unmarked) [Example 185] | > 1000 | 98 | 6 | – | – | –
O=C1CCC(N2Cc3c(ccc(C[C@H]4CCCC[C@@H]4NCC4COC4)c3F)C2=O)C(=O)N1 (some centres unmarked) [Example 186] | 88 | – | 8 | – | 28 | 98
O=C1CCC(N2Cc3c(ccc(C[C@H]4CCCC[C@@H]4NCC4CCOCC4)c3F)C2=O)C(=O)N1 (some centres unmarked) [Example 187] | 78 | – | 8 | – | 37 | 96
O=C1CCC(N2Cc3c(ccc(C[C@H]4CCCC[C@@H]4NC4CCOCC4)c3F)C2=O)C(=O)N1 (some centres unmarked) [Example 188] | 44 | – | 2 | – | 34 | 98
O=C1CCC(N2Cc3c(ccc(C[C@H]4CCCC[C@@H]4NC4CCOC4)c3F)C2=O)C(=O)N1 (some centres unmarked) [Example 189] | 39 | – | 2 | – | 46 | 97
O=C1CCC(N2Cc3c(ccc(C[C@H]4CCCC[C@@H]4NC4CCOC4)c3F)C2=O)C(=O)N1 (some centres unmarked) [Example 190] | 57 | – | 2 | – | 44 | 97
O=C1CCC(N2Cc3cc(C[C@H]4CCCC[C@@H]4NC4CC5CCC(C5)C4)ccc3C2=O)C(=O)N1 (some centres unmarked) [Example 191] | 63 | 97 | 2 | 30 | – | –
CC1(C)COCCC1N[C@H]1CCCC[C@@H]1Cc1ccc2c(c1)CN(C1CCC(=O)NC1=O)C2=O (some centres unmarked) [Example 192] | > 10000 | 94 | 6 | – | – | –
O=C1CCC(N2Cc3cc(C[C@H]4CCCC[C@@H]4NC4CC5CCC4O5)ccc3C2=O)C(=O)N1 (some centres unmarked) [Example 193] | > 1000 | 96 | 7 | – | – | –
O=C1CCC(N2Cc3cc(C[C@H]4CCCC[C@@H]4NC4C5CCC4COC5)ccc3C2=O)C(=O)N1 (some centres unmarked) [Example 194] | > 1000 | 92 | 20 | – | – | –
O=C1CCC(N2Cc3cc(C[C@H]4CCCC[C@@H]4NC4CCC5COC4O5)ccc3C2=O)C(=O)N1 (some centres unmarked) [Example 195] | > 1000 | 96 | 9 | – | – | –
O=C1CCC(N2Cc3cc(C[C@H]4CCCC[C@@H]4NC4CCCOCC4)ccc3C2=O)C(=O)N1 (some centres unmarked) [Example 197] | 68 | 97 | 5 | 22 | – | –
O=C1CCC(N2Cc3cc(C[C@H]4CCCC[C@@H]4NC4C[C@H]5COC[C@H]5C4)ccc3C2=O)C(=O)N1 (some centres unmarked) [Example 198] | > 1000 | 97 | 16 | – | – | –
O=C1CCC(N2Cc3cc(C[C@H]4CCCC[C@@H]4NC4C5CCCC4CC5)ccc3C2=O)C(=O)N1 (some centres unmarked) [Example 199] | > 10000 | 95 | 10 | – | – | –
CC(N[C@H]1CCCC[C@@H]1Cc1ccc2c(c1)CN(C1CCC(=O)NC1=O)C2=O)C1CCOCC1 (some centres unmarked) [Example 200] | > 1000 | 96 | 4 | – | – | –
CC(N[C@H]1CCCC[C@@H]1Cc1ccc2c(c1)CN(C1CCC(=O)NC1=O)C2=O)C1CCCC1 (some centres unmarked) [Example 201] | > 1000 | 96 | 7 | – | – | –
CC(N[C@H]1CCCC[C@@H]1Cc1ccc2c(c1)CN(C1CCC(=O)NC1=O)C2=O)C1CCCC1 (some centres unmarked) [Example 202] | > 1000 | – | 8 | – | – | 95
CC(N[C@H]1CCCC[C@@H]1Cc1ccc2c(c1)CN(C1CCC(=O)NC1=O)C2=O)C1CCCCC1 (some centres unmarked) [Example 203] | > 1000 | 95 | 13 | – | – | –
CC(CC1CC1)N[C@H]1CCCC[C@@H]1Cc1ccc2c(c1)CN(C1CCC(=O)NC1=O)C2=O (some centres unmarked) [Example 204] | > 1000 | 97 | 4 | – | – | –
CC(CC(C)(C)C)N[C@H]1CCCC[C@@H]1Cc1ccc2c(c1)CN(C1CCC(=O)NC1=O)C2=O (some centres unmarked) [Example 205] | > 1000 | 98 | 3 | – | – | –
CC(N[C@H]1CCCC[C@@H]1Cc1ccc2c(c1)CN(C1CCC(=O)NC1=O)C2=O)C1(C)CCC1 (some centres unmarked) [Example 207] | > 1000 | – | 2 | – | – | 94
[2H]C1(N[C@H]2CCCC[C@@H]2Cc2ccc3c(c2F)CN(C2CCC(=O)NC2=O)C3=O)CCC2(CC2)CC1 (some centres unmarked) [Example 210] | 30 | 97 | 1 | 68 | – | –
[2H]C1(N[C@H]2CCCC[C@@H]2Cc2ccc3c(c2F)CN(C2CCC(=O)NC2=O)C3=O)CCCCC1 (some centres unmarked) [Example 211] | 54 | 98 | 1 | 37 | – | –
